Drawing on ChEMBL document CHEMBL1136525, “6,7-dihydroxyisoquinoline-3-carboxylic acids are potent inhibitors on the binding of insulin-like growth factor (IGF) to IGF-binding proteins: optimization of the 1-position benzoyl side chain” (Bioorg Med Chem Lett, 2003), this text covers Ki for 27 compounds.

By Ki is commonly meant a dissociation constant, usually derived from enzyme kinetics or from competition with a known ligand. Low readings indicate higher affinity, high ones lower affinity.

For this test, the target named is Insulin-like growth factor-binding protein 3 (Homo sapiens, UniProt P17936). Nature of the test: Ability to displace Insulin-Like Growth Factor (IGF-I) from its binding to human insulin-like growth factor binding protein 3 (hIGFBP-3).
Insulin-like growth factor-binding protein 3, sequence (P17936 whole entry): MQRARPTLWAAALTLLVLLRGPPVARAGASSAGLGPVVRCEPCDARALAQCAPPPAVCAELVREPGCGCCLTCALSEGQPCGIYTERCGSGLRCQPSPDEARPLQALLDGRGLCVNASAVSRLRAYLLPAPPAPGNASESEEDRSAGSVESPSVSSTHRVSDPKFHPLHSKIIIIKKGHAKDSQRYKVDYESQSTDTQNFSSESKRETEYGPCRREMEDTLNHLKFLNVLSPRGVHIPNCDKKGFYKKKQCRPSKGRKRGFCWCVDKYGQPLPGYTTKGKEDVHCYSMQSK
`O=C(O)c1cc2cc(O)c(O)cc2c(C(O)c2ccc(Oc3ccccc3)cc2)n1` (configuration not stated) yielded a Ki of 32 nM.

For `O=C(O)c1cc2cc(O)c(O)cc2c(C(=O)c2ccc(Oc3cc(Cl)cc(Cl)c3)c(F)c2)n1`, the affinity corresponds to a Ki of 9 nM. This Ki is about 3.6-fold lower than that of the compound before.

`Nc1ccc(C(=O)c2nc(C(=O)O)cc3cc(O)c(O)cc23)cc1` returned a Ki of 130 nM.

Turning to `O=C(O)c1cc2cc(O)c(O)cc2c(C(=O)c2ccc(Oc3ccc(Cl)c(Cl)c3)c(F)c2)n1`, the affinity corresponds to a Ki of 12 nM.

As to `O=C(O)c1cc2cc(O)c(O)cc2c(C(=O)c2ccc(F)c(F)c2)n1`, the Ki turned out to be 51 nM.

`O=C(O)c1cc2cc(O)c(O)cc2c(Cc2ccc3c(c2)OCO3)n1` had a Ki of 72 nM.

In turn, `CS(=O)(=O)Nc1cc2cc(C(=O)O)nc(C(=O)c3ccc4c(c3)OCO4)c2cc1O` had a Ki above 10000 nM.

For the compound `Cc1cc(C)c(C(O)c2nc(C(=O)O)cc3cc(O)c(O)cc23)c(C)c1` (configuration not stated), the Ki came out at 11 nM.

In the case of `O=C(O)c1cc2cc(O)c(O)cc2c(C(=O)c2ccc(Oc3cccc(Cl)c3)c(F)c2)n1`, the affinity corresponds to a Ki of 11 nM.

For the compound `O=C(O)c1cc2cc(O)c(O)cc2c(C(=O)c2ccc(Sc3ccc(Cl)cc3)c(F)c2)n1`, the Ki stood at 31 nM. This Ki is about 2.8-fold higher than that of the compound before.

`O=C(O)c1cc2cc(O)c(O)cc2c(C(=O)c2ccc(Cl)c(Cl)c2)n1`: the affinity, expressed as Ki, was 29 nM.

`Cc1cc(C)c(C(=O)c2nc(C(=O)O)cc3cc(O)c(O)cc23)c(C)c1` displayed a Ki of 100 nM. This Ki lies about 3.4-fold higher than the previous one.

As to `O=C(O)c1cc2cc(O)c(O)cc2c(C(O)c2cccc(F)c2)n1` (configuration not stated), the affinity, expressed as Ki, was 24 nM. Against the preceding compound, the Ki is about 4.2-fold lower.

`O=C(O)c1cc2cc(O)c(O)cc2c(C(O)c2ccccc2Cl)n1` (configuration not stated) returned a Ki of 25 nM.

`Cc1ccc(Oc2ccc(C(=O)c3nc(C(=O)O)cc4cc(O)c(O)cc34)cc2F)cc1` showed a Ki of 9.4 nM.

Compound `O=C(O)c1cc2cc(O)c(O)cc2c(C(=O)c2ccc(Oc3ccc(-c4ccccc4)cc3)c(F)c2)n1` displayed a Ki of 32 nM.

`O=C(O)c1cc2cc(O)c(O)cc2c(C(=O)c2ccc(C(F)(F)F)cc2)n1` yielded an inhibition constant Ki of 38 nM.

With `O=C(O)c1cc2cc(O)c(O)cc2c(C(=O)c2ccc(Oc3ccc(C(F)(F)F)cc3)c(F)c2)n1`, the Ki is 32 nM.

For `O=C(O)c1cc2cc(O)c(O)cc2c(C(=O)c2cccc(F)c2)n1`, the Ki is 110 nM.

Take `O=C(O)c1cc2cc(O)c(O)cc2c(C(=O)c2ccc([N+](=O)[O-])cc2)n1`: the affinity, expressed as Ki, was 32 nM. Against the preceding compound, the Ki is about 3.4-fold lower.

For the compound `Nc1cc2cc(C(=O)O)nc(C(=O)c3ccc(O)c(O)c3)c2cc1O`, the Ki amounted to 60 nM.

Regarding `O=C(O)c1cc2cc(O)c(O)cc2c(C(=O)c2ccc(Oc3ccc(Cl)cc3)c(F)c2)n1`, the Ki is 20 nM.

Compound `CCCCC(CC)CNc1ccc(C(=O)c2nc(C(=O)O)cc3cc(O)c(O)cc23)cc1F` (configuration not stated) yielded a Ki of 62 nM. Compared with the last compound, the Ki is about 3.1-fold higher.

The compound `Nc1cc2cc(C(=O)O)nc(C(=O)c3ccc4c(c3)OCO4)c2cc1O` gave a Ki of 850 nM.

`CS(=O)(=O)Nc1ccc(C(=O)c2nc(C(=O)O)cc3cc(O)c(O)cc23)cc1` came in with a Ki of 110 nM. Compared with the last compound, the Ki is about 7.7-fold lower.

As to `O=C(O)c1cc2cc(O)c(O)cc2c(C(=O)c2ccccc2Cl)n1`, the Ki amounted to 110 nM.

Compound `O=C(O)c1cc2cc(O)c(O)cc2c(C(O)c2ccc(C(F)(F)F)cc2)n1` (configuration not stated) yielded a Ki of 18 nM.
